Here are results for 17 compounds from patent US11897880B2, “7,8-dihydrobenzo[e]pyrido[3,4-c]azocine-2,5(3H,6H)-dione derivatives useful as a factor XIa inhibitors” (Janssen Pharmaceutica NV, priority 2021, dated 2024).

Read-outs that look alike come from different tables or passages of the source. Bounds are passed on as bounds.

One assay has as its target Factor XIa (Homo sapiens, UniProt P03951). The assay can be described thus: Factor XIa inhibition assay utilizing a fluorophore-quencher pair peptide substrate (FLINT). The class given is biochemical. Conditions: for IC50: read-out: FXIa IC50; for Ki: read-out: FXIa Ki. The essentials: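 Enzyme preincubated 30 min at room temperature with compound (11-point 3-fold dilution, top 100 nM, 2% DMSO), then 15 μM 5Fam-KLTRAETV-K5Tamra substrate added. Buffer: 50 mM Tris pH 7.5, 100 mM NaCl, 5 mM CaCl2, 0.1 mg/mL BSA, 0.03% CHAPS. Fluorescence (485/520 nm) read kinetically over 30 min; IC50 from 4-parameter logistic fit.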

For another assay, the target named is human plasma kallikrein (Homo sapiens, UniProt P03952). Nature of the assay: Kallikrein inhibition assay utilizing a quenched AMC peptide substrate (FLINT). The class given is biochemical. To be noted: 30 min preincubation, 50 μM Z-Gly-Pro-Arg-AMC, 2 nM kallikrein. The essentials:
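Human plasma kallikrein (2 nM final) was preincubated 30 min at room temperature with compound (11-point 3-fold dilution, top 1 μM, 2% DMSO) in pH 7.5 Tris buffer with CaCl2, BSA and CHAPS. Z-Gly-Pro-Arg-AMC (50 μM final) fluorescence was read at 340/440 nm every 5 min for 30 min. IC50 came from a 4-parameter logistic fit.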

The mark [1] stands for this setting: 30 min preincubation, 5Fam-KLTRAETV-K5Tamra substrate 15 μM final, kinetic reads.
Where [2] appears, read: cells that print μM themselves in the nM column.
Where [3] appears, read: cells that print μM themselves in the nM column, same assay conditions.

Factor XIa, sequence (P03951 388-625 limits assumed): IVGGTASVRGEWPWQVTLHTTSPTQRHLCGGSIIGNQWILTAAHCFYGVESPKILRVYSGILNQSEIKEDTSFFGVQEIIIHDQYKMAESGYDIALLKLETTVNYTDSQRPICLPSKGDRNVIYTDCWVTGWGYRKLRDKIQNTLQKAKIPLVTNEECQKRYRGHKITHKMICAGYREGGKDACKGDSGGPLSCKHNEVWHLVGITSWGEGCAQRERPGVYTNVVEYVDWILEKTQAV
Factor XIa, sequence (P03951 19-387 partner limits assumed): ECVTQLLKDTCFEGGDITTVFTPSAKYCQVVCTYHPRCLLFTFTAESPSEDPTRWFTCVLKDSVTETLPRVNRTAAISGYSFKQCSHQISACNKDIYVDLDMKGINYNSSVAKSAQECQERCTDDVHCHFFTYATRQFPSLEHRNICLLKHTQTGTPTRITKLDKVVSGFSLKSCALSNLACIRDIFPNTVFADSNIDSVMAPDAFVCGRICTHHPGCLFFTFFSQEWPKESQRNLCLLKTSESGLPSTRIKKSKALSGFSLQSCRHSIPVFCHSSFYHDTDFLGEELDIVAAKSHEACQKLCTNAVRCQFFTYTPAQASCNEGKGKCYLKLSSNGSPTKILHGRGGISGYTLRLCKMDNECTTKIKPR
human plasma kallikrein, sequence (P03952 391-638 limits assumed): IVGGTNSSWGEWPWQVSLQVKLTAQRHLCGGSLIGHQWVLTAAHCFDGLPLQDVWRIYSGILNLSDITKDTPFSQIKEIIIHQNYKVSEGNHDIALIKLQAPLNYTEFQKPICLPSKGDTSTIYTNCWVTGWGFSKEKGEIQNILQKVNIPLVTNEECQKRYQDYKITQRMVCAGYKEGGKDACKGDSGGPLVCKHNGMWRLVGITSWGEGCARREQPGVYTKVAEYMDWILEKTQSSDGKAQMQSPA
human plasma kallikrein, sequence (P03952 20-390 partner limits assumed): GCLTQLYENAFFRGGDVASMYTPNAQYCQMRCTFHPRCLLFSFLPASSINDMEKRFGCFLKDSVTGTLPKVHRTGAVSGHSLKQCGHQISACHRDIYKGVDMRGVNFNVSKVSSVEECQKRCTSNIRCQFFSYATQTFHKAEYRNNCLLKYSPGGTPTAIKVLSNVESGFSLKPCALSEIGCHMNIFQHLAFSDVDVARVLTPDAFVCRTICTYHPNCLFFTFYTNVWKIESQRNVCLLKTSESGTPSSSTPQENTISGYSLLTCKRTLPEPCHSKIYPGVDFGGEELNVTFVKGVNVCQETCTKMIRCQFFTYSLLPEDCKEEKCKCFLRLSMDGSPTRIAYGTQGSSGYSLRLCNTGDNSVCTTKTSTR

Usually IC50 stands for the concentration that inhibits the measured activity by half. A word on the Ki: it is a measure of affinity in units of concentration, obtained from inhibition or displacement. On to `O=C1NC2(CC2)Cc2ccc(Cl)c(F)c2-c2cc(=O)n(C(CC3CC3)c3ncc(-c4ccncc4)[nH]3)cc21` (single isomer, unassigned) [Compound 66, (R*)-11-chloro-3-(2-cyclopropyl-1-(5-(pyridin-4-yl)-1H-imidazol-2-yl)ethyl)-12-fluoro-3H-spiro[benzo[e]pyrido[3,4-c]azocine-7,1′-cyclopropane]-2,5(6H,8H)-dione], for which the IC50 on Factor XIa (setting [1]) was 0.183 µM; against human plasma kallikrein, over 10000 nM. In addition, at Factor XIa, the Ki amounted to 0.0917 µM.
Take `O=C1NC2(CC2)Cc2ccc(Cl)c(F)c2-c2cc(=O)n([C@@H](CC3CC3)c3ncc(-c4ccncc4)[nH]3)cc21` (single isomer, unassigned) [Compound 67, (S*)-11-chloro-3-(2-cyclopropyl-1-(5-(pyridin-4-yl)-1H-imidazol-2-yl)ethyl)-12-fluoro-3H-spiro[benzo[e]pyrido[3,4-c]azocine-7,1′-cyclopropane]-2,5(6H,8H)-dione]: the figures for the concentration for half-maximal inhibition (IC50) on Factor XIa (setting [1]) and on human plasma kallikrein were 0.0129 µM and 1390 nM, respectively. Also, at Factor XIa, the Ki amounted to 0.0064 µM.
Regarding `Cn1ccc(-c2cnc(C(CC3CC3)n3cc4c(cc3=O)-c3c(ccc(Cl)c3F)CC3(CC3)NC4=O)[nH]2)cc1=O` (single isomer, unassigned) [Compound 68, (R*)-11-chloro-3-(2-cyclopropyl-1-(5-(1-methyl-2-oxo-1,2-dihydropyridin-4-yl)-1H-imidazol-2-yl)ethyl)-12-fluoro-3H-spiro[benzo[e]pyrido[3,4-c]azocine-7,1′-cyclopropane]-2,5(6H,8H)-dione], the Ki on Factor XIa (setting [2]) turned out to be 1.12 µM. Also, the figures for the IC50 on Factor XIa (setting [3]) and against human plasma kallikrein were 2.24 µM and over 10000 nM, respectively.
With `Cn1ccc(-c2cnc([C@H](CC3CC3)n3cc4c(cc3=O)-c3c(ccc(Cl)c3F)CC3(CC3)NC4=O)[nH]2)cc1=O` (single isomer, unassigned) [Compound 69, (S*)-11-chloro-3-(2-cyclopropyl-1-(5-(1-methyl-2-oxo-1,2-dihydropyridin-4-yl)-1H-imidazol-2-yl)ethyl)-12-fluoro-3H-spiro[benzo[e]pyrido[3,4-c]azocine-7,1′-cyclopropane]-2,5(6H,8H)-dione], the IC50 at Factor XIa (setting [1]) was determined as 0.108 µM; on human plasma kallikrein, 8080 nM. Also, at Factor XIa, the Ki was found to be 0.0541 µM.
Consider `O=C1NC2(CC2)Cc2ccc(Cl)c(F)c2-c2cc(=O)n3c(c21)CC[C@H]3c1ncc(-c2ccn3c(Br)cnc3c2)[nH]1` (single isomer, unassigned) [Compound 71, (*S)-12-(5-(3-Bromoimidazo[1,2-a]pyridin-7-yl)-1H-imidazol-2-yl)-7-chloro-8-fluoro-13,14-dihydro-2H-spiro[benzo[5,6]azocino[4,3-g]indolizine-3,1′-cyclopropane]-1,10(4H,12H)-dione], for which the Ki at Factor XIa (setting [2]) is over 5 µM. Moreover, the IC50 at Factor XIa (setting [3]) is over 10 µM; at human plasma kallikrein, over 10000 nM.
For `O=C1NC2(CC2)Cc2ccc(Cl)c(F)c2-c2cc(=O)n3c(c21)CCC3c1ncc(-c2ccn3c(Br)cnc3c2)[nH]1` (single isomer, unassigned) [Compound 72, (*R)-12-(5-(3-Bromoimidazo[1,2-a]pyridin-7-yl)-1H-imidazol-2-yl)-7-chloro-8-fluoro-13,14-dihydro-2H-spiro[benzo[5,6]azocino[4,3-g]indolizine-3,1′-cyclopropane]-1,10(4H,12H)-dione], the IC50 amounted to 0.0267 µM on Factor XIa (setting [1]) and 3540 nM on human plasma kallikrein. Further, the Ki on Factor XIa amounted to 0.0133 µM.
Consider `Cc1nc2cc(-c3cnc([C@@H]4CCc5c6c(cc(=O)n54)-c4c(ccc(Cl)c4F)CC4(CC4)NC6=O)[nH]3)ccc2s1` (stereo in doubt) [Compound 4, (S*)-7-chloro-8-fluoro-12-(5-(2-methylbenzo[d]thiazol-5-yl)-1H-imidazol-2-yl)-13,14-dihydro-2H-spiro[benzo[5,6]azocino[4,3-g]indolizine-3,1′-cyclopropane]-1,10(4H,12H)-dione], for which, on Factor XIa (setting [2]), the Ki was found to be 1.15 µM. Also, the IC50 at Factor XIa (setting [3]) was 2.29 µM; against human plasma kallikrein, over 10000 nM.
Turning to `Cc1nc2cc(-c3cnc([C@H]4CCc5c6c(cc(=O)n54)-c4c(ccc(Cl)c4F)CC4(CC4)NC6=O)[nH]3)ccc2s1` (stereo in doubt) [Compound 5, (R*)-7-chloro-8-fluoro-12-(5-(2-methylbenzo[d]thiazol-5-yl)-1H-imidazol-2-yl)-13,14-dihydro-2H-spiro[benzo[5,6]azocino[4,3-g]indolizine-3,1′-cyclopropane]-1,10(4H,12H)-dione], the IC50 at Factor XIa (setting [1]) came to 0.0021 µM; on human plasma kallikrein it was 60 nM. Further, at Factor XIa, the Ki turned out to be 0.001 µM.
As for `O=C1NC2(CC2)Cc2ccc(Cl)c(F)c2-c2cc(=O)n3c(c21)CC[C@@H]3c1ncc(-c2ccc3[nH]cnc3c2)[nH]1` (stereo in doubt) [Compound 6, (R*)-12-(5-(1H-benzo[d]imidazol-5-yl)-1H-imidazol-2-yl)-7-chloro-8-fluoro-13,14-dihydro-2H-spiro[benzo[5,6]azocino[4,3-g]indolizine-3,1′-cyclopropane]-1,10(4H,12H)-dione], the 50% inhibitory concentration (IC50) on Factor XIa (setting [1]) was found to be 0.0006 µM; at human plasma kallikrein, 60 nM. The Ki at Factor XIa worked out at 0.0003 µM.
In the case of `O=C1NC2(CC2)Cc2ccc(Cl)c(F)c2-c2cc(=O)n3c(c21)CC[C@H]3c1ncc(-c2ccn3ccnc3c2)[nH]1` (stereo in doubt) [Compound 7, (S*)-7-chloro-8-fluoro-12-(5-(imidazo[1,2-a]pyridin-7-yl)-1H-imidazol-2-yl)-13,14-dihydro-2H-spiro[benzo[5,6]azocino[4,3-g]indolizine-3,1′-cyclopropane]-1,10(4H,12H)-dione], the IC50 at Factor XIa (setting [1]) amounted to 0.0023 µM; at human plasma kallikrein it was 420 nM. The Ki on Factor XIa was 0.0011 µM.
On to `O=C1NC2(CC2)Cc2ccc(Cl)c(F)c2-c2cc(=O)n3c(c21)CC[C@@H]3c1ncc(-c2ccn3ccnc3c2)[nH]1` (stereo in doubt) [Compound 8, (R*)-7-chloro-8-fluoro-12-(5-(imidazo[1,2-a]pyridin-7-yl)-1H-imidazol-2-yl)-13,14-dihydro-2H-spiro[benzo[5,6]azocino[4,3-g]indolizine-3,1′-cyclopropane]-1,10(4H,12H)-dione], for which the results for the IC50 at Factor XIa (setting [1]) and on human plasma kallikrein were 0.0019 µM and 470 nM, respectively. For the same compound, at Factor XIa, the Ki is 0.0009 µM.
Consider `O=C1NC2(CC2)Cc2ccc(Cl)c(F)c2-c2cc(=O)n3c(c21)CC[C@H]3c1ncc(-c2ccn3cnnc3c2)[nH]1` (stereo in doubt) [Compound 15, (S*)-12-(5-([1,2,4]triazolo[4,3-a]pyridin-7-yl)-1H-imidazol-2-yl)-7-chloro-8-fluoro-13,14-dihydro-2H-spiro[benzo[5,6]azocino[4,3-g]indolizine-3,1′-cyclopropane]-1,10(4H,12H)-dione], for which, at Factor XIa (setting [2]), the Ki was 2.91 µM. Besides, the IC50 is 5.82 µM on Factor XIa (setting [3]) and over 10000 nM at human plasma kallikrein.
Consider `O=C1NC2(CC2)Cc2ccc(Cl)c(F)c2-c2cc(=O)n3c(c21)CC[C@@H]3c1ncc(-c2ccn3cnnc3c2)[nH]1` (stereo in doubt) [Compound 18, (R*)-12-(5-([1,2,4]triazolo[4,3-a]pyridin-7-yl)-1H-imidazol-2-yl)-7-chloro-8-fluoro-13,14-dihydro-2H-spiro[benzo[5,6]azocino[4,3-g]indolizine-3,1′-cyclopropane]-1,10(4H,12H)-dione], for which the IC50 came out at 0.0132 µM on Factor XIa (setting [1]) and 820 nM against human plasma kallikrein. Also, the Ki on Factor XIa came to 0.0066 µM.
As to `O=C1NC2(CC2)Cc2ccc(Cl)c(F)c2-c2cc(=O)n3c(c21)CC[C@@H]3c1ncc(-c2ccc3[nH]ncc3c2)[nH]1` (stereo in doubt) [Compound 19, (R*)-12-(5-(1H-indazol-5-yl)-1H-imidazol-2-yl)-7-chloro-8-fluoro-13,14-dihydro-2H-spiro[benzo[5,6]azocino[4,3-g]indolizine-3,1′-cyclopropane]-1,10(4H,12H)-dione], the IC50 at Factor XIa (setting [1]) is 0.001 µM; at human plasma kallikrein it was 20 nM. Besides, the Ki at Factor XIa worked out at 0.0005 µM.
As to `O=C1NC2(CC2)Cc2ccc(Cl)c(F)c2-c2cc(=O)n3c(c21)CC[C@@H]3c1ncc(-c2ccc3cncn3c2)[nH]1` (stereo in doubt) [Compound 22, (R*)-7-chloro-8-fluoro-12-(5-(imidazo[1,5-a]pyridin-6-yl)-1H-imidazol-2-yl)-13,14-dihydro-2H-spiro[benzo[5,6]azocino[4,3-g]indolizine-3,1′-cyclopropane]-1,10(4H,12H)-dione], the Ki at Factor XIa (setting [2]) stood at 2.54 µM. The IC50 was 5.07 µM on Factor XIa (setting [3]) and over 10000 nM at human plasma kallikrein.
Regarding `O=C1NC2(CC2)Cc2ccc(Cl)c(F)c2-c2cc(=O)n3c(c21)CC[C@H]3c1ncc(-c2ccc3cncn3c2)[nH]1` (stereo in doubt) [Compound 23, (S*)-7-chloro-8-fluoro-12-(5-(imidazo[1,5-a]pyridin-6-yl)-1H-imidazol-2-yl)-13,14-dihydro-2H-spiro[benzo[5,6]azocino[4,3-g]indolizine-3,1′-cyclopropane]-1,10(4H,12H)-dione], the results for the IC50 at Factor XIa (setting [1]) and at human plasma kallikrein were 0.007 µM and 540 nM, respectively. Further, the Ki at Factor XIa amounted to 0.0035 µM.
With `COCCN1C(=O)c2c(cc(=O)n3c2CC[C@@H]3c2ncc(-c3ccc(N)nc3F)[nH]2)-c2c(ccc(Cl)c2F)CC12CC2` (stereo in doubt) [Compound 24, (R*)-12-(5-(6-amino-2-fluoropyridin-3-yl)-1H-imidazol-2-yl)-7-chloro-8-fluoro-2-(2-methoxyethyl)-13,14-dihydro-2H-spiro[benzo[5,6]azocino[4,3-g]indolizine-3,1′-cyclopropane]-1,10(4H,12H)-dione], the concentration for half-maximal inhibition (IC50) on Factor XIa (setting [1]) was over 0.01 µM; at human plasma kallikrein, over 10000 nM. Further, the Ki on Factor XIa (setting [2]) is over 5 µM.
